Results taken from US20210196724A1, “BIARYL COMPOSITIONS AND METHODS FOR MODULATING A KINASE CASCADE” (Athenex, Inc., priority 2016, published 2021).

Experiments:
Assay type in all cases: cell-based
Molt-4 cells = assay: CellTiter-Glo cell viability, Molt-4; details: 72 h
Description: (§1) The cell viability of 50 cancer cell lines was studied after treatment with Compound 121. Inhibition concentration values at 50% (IC50) were determined using CellTiter-Glo luminescent cell viability assay after incubation with different compound concentrations. GI50 values were determined according to the examples described above. Each cell line was treated with Compound 121, a standard chemotherapy drug as a reference control, and culture medium as a vehicle control.
(§2) All cells were cultured in media supplemented with 10-15% FBS at 37° C. in the presence of 5% CO2 and at 95% humidity. The culture medium was purchased from GIBCO or Sigma, USA. Cisplatin was chosen as the reference control and purchased from Hospira Australia Pty Ltd. The cell lines studied are presented in Table 5.
(§3) Cells were harvested during a logarithmic growth period and cell number count was determined using Count-star. Cell concentrations were adjusted to 4.44×10^4 cells/mL with respective culture medium. 90 μL of cell suspensions were added to two 96-well plates (plates A and B) with a final cell density of 4×10^3 cells/well.
(§4) 10 μL of culture medium was added to each well of plate A for TO reading. The plate was allowed to equilibrate at room temperature for approximately 30 min. 50 μL of CellTiter-Glo was added to each well and the contents were mixed for 5 min on an orbital shaker to induce cell lysis. The plate was allowed to incubate at room temperature for 20 min to stabilize luminescent signal.
(§5) 10 μM Compound 121 in media was serially diluted 3.16-fold to achieve 9 dose levels. Similarly, 100 μM reference control in media was serially diluted 3.16-fold to prepare reference control solutions. 10 μL drug solution and 10 μL of reference control was dispensed into each well in plate B.
(§6) Test plate B was incubated for 72 h in a humidified incubator at 37° C. in the presence of 5% CO2 and then subjected to CTG assay. The plate was allowed to equilibrate at room temperature for about 30 min. 50 μL of CellTiter-Glo was added to each well and the contents were mixed for 5 min on an orbital shaker to induce cell lysis. The plate was allowed to incubate at room temperature for 20 min to stabilize luminescent signal.
(§7) IC50 and GI50 values for each of the 50 cell lines are presented in Table 6 and were calculated based on the dose-response curves depicted in FIGS. 1-50. The dose-response curves were fitted using nonlinear regression model with a sigmoidal dose response. The formula for calculating survival rate was calculated by the formula:
(§8) Survival rate (%)=(LumTest article−LumMedium control)/(LumNone treated−LumMedium control)×100.

EBC-1 cells = assay: CellTiter-Glo cell viability, EBC-1; details: 72 h
Description: as §1, §2, §3, §4, §5, §6, §7, §8

KP4 cells = assay: CellTiter-Glo cell viability, KP4; details: 72 h
Description: as §1, §2, §3, §4, §5, §6, §7, §8

NCI-H209 cells = assay: CellTiter-Glo cell viability, NCI-H209; details: 72 h
Description: as §1, §2, §3, §4, §5, §6, §7, §8

NCI-H1975 cells = assay: CellTiter-Glo cell viability, NCI-H1975; details: 72 h
Description: as §1, §2, §3, §4, §5, §6, §7, §8

HT-1080 cells = assay: CellTiter-Glo cell viability, HT-1080; details: 72 h
Description: as §1, §2, §3, §4, §5, §6, §7, §8

HUH-7 cells = assay: CellTiter-Glo cell viability, HUH-7; details: 72 h
Description: as §1, §2, §3, §4, §5, §6, §7, §8

Raji cells = assay: CellTiter-Glo cell viability, Raji; details: 72 h
Description: as §1, §2, §3, §4, §5, §6, §7, §8

HuT 78 cells = assay: CellTiter-Glo cell viability, HuT 78; details: 72 h
Description: as §1, §2, §3, §4, §5, §6, §7, §8

HCT-116 cells = assay: CellTiter-Glo cell viability, HCT-116; details: 72 h
Description: as §1, §2, §3, §4, §5, §6, §7, §8

SCC-4 cells = assay: CellTiter-Glo cell viability, SCC-4; details: 72 h
Description: as §1, §2, §3, §4, §5, §6, §7, §8

786-O cells = assay: CellTiter-Glo cell viability, 786-O; details: 72 h
Description: as §1, §2, §3, §4, §5, §6, §7, §8

NCI-H226 cells = assay: CellTiter-Glo cell viability, NCI-H226; details: 72 h
Description: as §1, §2, §3, §4, §5, §6, §7, §8

HCT-15 cells = assay: CellTiter-Glo cell viability, HCT-15; details: 72 h
Description: as §1, §2, §3, §4, §5, §6, §7, §8

AsPC-1 cells = assay: CellTiter-Glo cell viability, AsPC-1; details: 72 h
Description: as §1, §2, §3, §4, §5, §6, §7, §8

HT-29 cells = assay: CellTiter-Glo cell viability, HT-29; details: 72 h
Description: as §1, §2, §3, §4, §5, §6, §7, §8

PC-3 cells = assay: CellTiter-Glo cell viability, PC-3; details: 72 h
Description: as §1, §2, §3, §4, §5, §6, §7, §8

FaDu cells = assay: CellTiter-Glo cell viability, FaDu; details: 72 h
Description: as §1, §2, §3, §4, §5, §6, §7, §8

SNU-5 cells = assay: CellTiter-Glo cell viability, SNU-5; details: SN1J-5 cells, 72 h
Description: as §1, §2, §3, §4, §5, §6, §7, §8

MX-1 cells = assay: CellTiter-Glo cell viability, MX-1; details: 72 h
Description: as §1, §2, §3, §4, §5, §6, §7, §8

HT-1376 cells = assay: CellTiter-Glo cell viability, HT-1376; details: 72 h
Description: as §1, §2, §3, §4, §5, §6, §7, §8

[1] = top conc. 10 μM Compound 121, 100 μM cisplatin

N.N.[Cl][Pt][Cl] [Cisplatin, reference compound]
GI50 (Molt-4 cells; read-out: Absolute GI50): 0.61 µM | IC50 (Molt-4 cells; read-out: Absolute IC50): 0.71 µM | % inhibition at top conc. (Molt-4 cells; [1]): 99.96% | GI50 (EBC-1 cells; read-out: Absolute GI50): 11.8 µM | IC50 (EBC-1 cells; read-out: Absolute IC50): 17.3 µM | % inhibition at top conc. (EBC-1 cells; [1]): 84.49% | GI50 (KP4 cells; read-out: Absolute GI50): 6.87 µM | IC50 (KP4 cells; read-out: Absolute IC50): 8.8 µM | % inhibition at top conc. (KP4 cells; [1]): 98.30% | GI50 (NCI-H209 cells; read-out: Absolute GI50): 0.14 µM | IC50 (NCI-H209 cells; read-out: Absolute IC50): 0.23 µM | % inhibition at top conc. (NCI-H209 cells; [1]): 98.81% | GI50 (NCI-H1975 cells; read-out: Absolute GI50): 5.52 µM | IC50 (NCI-H1975 cells; read-out: Absolute IC50): 6.93 µM | % inhibition at top conc. (NCI-H1975 cells; [1]): 98.75% | GI50 (HT-1080 cells; read-out: Absolute GI50): 1.98 µM | IC50 (HT-1080 cells; read-out: Absolute IC50): 2.22 µM | % inhibition at top conc. (HT-1080 cells; [1]): 99.59% | GI50 (HUH-7 cells; read-out: Absolute GI50): 2.61 µM | IC50 (HUH-7 cells; read-out: Absolute IC50): 3.54 µM | % inhibition at top conc. (HUH-7 cells; [1]): 93.92% | GI50 (Raji cells; read-out: Absolute GI50): 1.74 µM | IC50 (Raji cells; read-out: Absolute IC50): 1.97 µM | % inhibition at top conc. (Raji cells; [1]): 94.98% | GI50 (HuT 78 cells; read-out: Absolute GI50): 0.5 µM | IC50 (HuT 78 cells; read-out: Absolute IC50): 0.66 µM | % inhibition at top conc. (HuT 78 cells; [1]): 98.27% | GI50 (HCT-116 cells; read-out: Absolute GI50): 4.14 µM | IC50 (HCT-116 cells; read-out: Absolute IC50): 4.35 µM | % inhibition at top conc. (HCT-116 cells; [1]): 95.29% | GI50 (SCC-4 cells; read-out: Absolute GI50): 3.43 µM | IC50 (SCC-4 cells; read-out: Absolute IC50): 4.15 µM | % inhibition at top conc. (SCC-4 cells; [1]): 99.29% | GI50 (786-O cells; read-out: Absolute GI50): 1.6 µM | IC50 (786-O cells; read-out: Absolute IC50): 1.77 µM | % inhibition at top conc. (786-O cells; [1]): 98.46% | GI50 (NCI-H226 cells; read-out: Absolute GI50): 5.72 µM | IC50 (NCI-H226 cells; read-out: Absolute IC50): 7.36 µM | % inhibition at top conc. (NCI-H226 cells; [1]): 94.81% | GI50 (HCT-15 cells; read-out: Absolute GI50): 4.27 µM | IC50 (HCT-15 cells; read-out: Absolute IC50): 4.76 µM | % inhibition at top conc. (HCT-15 cells; [1]): 98.22% | GI50 (AsPC-1 cells; read-out: Absolute GI50): 2.73 µM | IC50 (AsPC-1 cells; read-out: Absolute IC50): 3.31 µM | % inhibition at top conc. (AsPC-1 cells; [1]): 72.39% | GI50 (HT-29 cells; read-out: Absolute GI50): 8.78 µM | IC50 (HT-29 cells; read-out: Absolute IC50): 9.8 µM | % inhibition at top conc. (HT-29 cells; [1]): 89.05% | GI50 (PC-3 cells; read-out: Absolute GI50): 4.68 µM | IC50 (PC-3 cells; read-out: Absolute IC50): 5.94 µM | % inhibition at top conc. (PC-3 cells; [1]): 83.88% | GI50 (FaDu cells; read-out: Absolute GI50): 1.96 µM | IC50 (FaDu cells; read-out: Absolute IC50): 2.25 µM | % inhibition at top conc. (FaDu cells; [1]): 98.16% | GI50 (SNU-5 cells; read-out: Absolute GI50): 2.15 µM | IC50 (SNU-5 cells; read-out: Absolute IC50): 2.5 µM | % inhibition at top conc. (SNU-5 cells; [1]): 97.80% | GI50 (MX-1 cells; read-out: Absolute GI50): 5.69 µM | IC50 (MX-1 cells; read-out: Absolute IC50): 7.12 µM | % inhibition at top conc. (MX-1 cells; [1]): 98.97% | GI50 (HT-1376 cells; read-out: Absolute GI50): 2.64 µM | IC50 (HT-1376 cells; read-out: Absolute IC50): 3.26 µM | % inhibition at top conc. (HT-1376 cells; [1]): 91.76%
